Data as given in patent publication US6403082B1, “Bacteriocins, transport and vector system and method of use thereof” (priority 1996, dated 2002).
Ends that are not written are not given here.

Columns and labels:
Assay in all cases: Spot test of partially purified bacteriocins on strains grown on agar
[1] = tested on: Bacillus vegetative cells; format: cell-based
Bacillus spores = format: cell-based
[2] = tested on: Clostridia vegetative cells; format: cell-based, Clostridium
Clostridia spores = format: cell-based, Clostridium
G negative strains = format: cell-based
Staphylococcus = tested on: Staphylococcus
Streptococcus = tested on: Streptococcus
Listeria = tested on: Listeria
Brochothrix = tested on: Brochothrix
Carnobacteria = tested on: Carnobacteria
Enterococcus = tested on: Enterococcus
Lactobacillus = tested on: Lactobacillus
Lactococcus = tested on: Lactococcus
Leuconostoc = tested on: Leuconostoc
Pediococcus = tested on: Pediococcus

Substance | Number of strains inhibited/Number of strains tested ([1]; 1AU (10 μl/spot of 100 AU/ml)) | Number of strains inhibited/Number of strains tested ([1]; 8AU (10 μl/spot of 800 AU/ml)) | Number of strains inhibited/Number of strains tested (Bacillus spores; 1AU (10 μl/spot of 100 AU/ml)) | Number of strains inhibited/Number of strains tested (Bacillus spores; 8AU (10 μl/spot of 800 AU/ml)) | Number of strains inhibited/Number of strains tested ([2]; 1AU (10 μl/spot of 100 AU/ml)) | Number of strains inhibited/Number of strains tested ([2]; 8AU (10 μl/spot of 800 AU/ml)) | Number of strains inhibited/Number of strains tested (Clostridia spores; 1AU (10 μl/spot of 100 AU/ml)) | Number of strains inhibited/Number of strains tested (Clostridia spores; 8AU (10 μl/spot of 800 AU/ml)) | Number of strains inhibited/Number of strains tested (G negative strains; 1AU (10 μl/spot of 100 AU/ml)) | Number of strains inhibited/Number of strains tested (G negative strains; 8AU (10 μl/spot of 800 AU/ml)) | Number of strains inhibited/Number of strains tested (Staphylococcus; 1AU (10 μl/spot of 100 AU/ml)) | Number of strains inhibited/Number of strains tested (Staphylococcus; 8AU (10 μl/spot of 800 AU/ml)) | Number of strains inhibited/Number of strains tested (Streptococcus; 1AU (10 μl/spot of 100 AU/ml)) | Number of strains inhibited/Number of strains tested (Streptococcus; 8AU (10 μl/spot of 800 AU/ml)) | Number of strains inhibited/Number of strains tested (Listeria; 1AU (10 μl/spot of 100 AU/ml)) | Number of strains inhibited/Number of strains tested (Listeria; 8AU (10 μl/spot of 800 AU/ml)) | Number of strains inhibited/Number of strains tested (Brochothrix; 1AU (10 μl/spot of 100 AU/ml)) | Number of strains inhibited/Number of strains tested (Brochothrix; 8AU (10 μl/spot of 800 AU/ml)) | Number of strains inhibited/Number of strains tested (Carnobacteria; 1AU (10 μl/spot of 100 AU/ml)) | Number of strains inhibited/Number of strains tested (Carnobacteria; 8AU (10 μl/spot of 800 AU/ml)) | also measured
Pedi PA-1: pediocin PA-1, a bacteriocin from Pediococcus acidilactici PAC1.0 (KYYGNGVTCGKHSCSVDWGKATTCIINNGAMAWATGGHQGNHKC; ends and bridges not checked; cysteine pairing not given here; UniProt P29430 19-62, looked up) | 2/5 | 2/5 | 0/5 | 0/5 | 0/8 | 0/8 | 0/7 | 0/7 | 0/29 | 0/29 | 0/7 | 1/7 | 0/3 | 0/3 | 39/42 | 40/42 | 0/14 | 0/14 | 7/19 | 7/19 | Number of strains inhibited/Number of strains tested (Enterococcus; 1AU (10 μl/spot of 100 AU/ml)): 7/14; Number of strains inhibited/Number of strains tested (Enterococcus; 8AU (10 μl/spot of 800 AU/ml)): 11/14; Number of strains inhibited/Number of strains tested (Lactobacillus; 1AU (10 μl/spot of 100 AU/ml)): 1/17; Number of strains inhibited/Number of strains tested (Lactobacillus; 8AU (10 μl/spot of 800 AU/ml)): 2/17; Number of strains inhibited/Number of strains tested (Lactococcus; 1AU (10 μl/spot of 100 AU/ml)): 0/8; Number of strains inhibited/Number of strains tested (Lactococcus; 8AU (10 μl/spot of 800 AU/ml)): 0/8; Number of strains inhibited/Number of strains tested (Leuconostoc; 1AU (10 μl/spot of 100 AU/ml)): 4/9; Number of strains inhibited/Number of strains tested (Leuconostoc; 8AU (10 μl/spot of 800 AU/ml)): 5/9; Number of strains inhibited/Number of strains tested (Pediococcus; 1AU (10 μl/spot of 100 AU/ml)): 0/3; Number of strains inhibited/Number of strains tested (Pediococcus; 8AU (10 μl/spot of 800 AU/ml)): 2/3
cbn A | 2/5 | 2/5 | 0/5 | 0/5 | 0/8 | 0/8 | 0/7 | 0/7 | 0/29 | 0/29 | 0/7 | 1/7 | 0/3 | 0/3 | 4/42 | 21/42 | 0/14 | 0/14 | 0/14 | 0/14 | Number of strains inhibited/Number of strains tested (Enterococcus; 1AU (10 μl/spot of 100 AU/ml)): 2/14; Number of strains inhibited/Number of strains tested (Enterococcus; 8AU (10 μl/spot of 800 AU/ml)): 2/14; Number of strains inhibited/Number of strains tested (Lactobacillus; 1AU (10 μl/spot of 100 AU/ml)): 0/17; Number of strains inhibited/Number of strains tested (Lactobacillus; 8AU (10 μl/spot of 800 AU/ml)): 1/17; Number of strains inhibited/Number of strains tested (Lactococcus; 1AU (10 μl/spot of 100 AU/ml)): 0/8; Number of strains inhibited/Number of strains tested (Lactococcus; 8AU (10 μl/spot of 800 AU/ml)): 0/8; Number of strains inhibited/Number of strains tested (Leuconostoc; 1AU (10 μl/spot of 100 AU/ml)): 1/9; Number of strains inhibited/Number of strains tested (Leuconostoc; 8AU (10 μl/spot of 800 AU/ml)): 1/9; Number of strains inhibited/Number of strains tested (Pediococcus; 1AU (10 μl/spot of 100 AU/ml)): 0/3; Number of strains inhibited/Number of strains tested (Pediococcus; 8AU (10 μl/spot of 800 AU/ml)): 0/3
